Source: patent US11414404B2, “Compounds for the treatment of BRAF-associated diseases and disorders” (Array BioPharma Inc., priority 2019, dated 2022)
Like-named read-outs stand apart in the source and are kept apart here.

Tests used:
BCRP [1] = target: T1, BCRP (Homo sapiens (Human), UniProt Q9UNQ0); assay: BCRP MDCKII permeability assay: efflux ratio; settings: BCRP transfected MDCKII cells; Papp(B−A)/Papp(A−B); test article 1 μM; 2 hours
Description: (§4) BCRP transfected MDCKII cells were cultured and plated according to manufacturer's recommendations. Assay conditions included with and without the BCRP-specific inhibitor, K0143, at a concentration of 0.3 μM to ascertain the contribution of BCRP to the efflux value of the test compound.
(§5) Both positive and negative controls were used to assess functionality of P-gp or BCRP efflux in the assays. […] Final organic concentration in the assay was 1%. All dosing solutions contained 10 μM lucifer yellow to monitor LLC-PK1 or MDCKII cell monolayer integrity.
(§6) For the apical to basolateral determination (A to B), 75 μL of the test article in transport buffer were added to the apical side of the individual transwells and 250 μL of basolateral media, without compound or lucifer yellow, were added to each well. For the basolateral to apical determination (B to A), 250 μL of test article in transport buffer were added to each well and 75 μL transport buffer, without compound or lucifer yellow, were added to each transwell. All tests were performed in triplicate, and each compound was tested for both apical to basolateral and basolateral to apical transport. The plates were incubated for 2 hours on a Lab-Line Instruments Titer Orbital Shaker (VWR, West Chester, Pa.) at 50 rpm and 37° C. with 5% CO2. All culture plates were removed from the incubator and 50 μL of media were removed from the apical and basolateral portion of each well and added to 150 μL of 1 μM labetalol in 2:1 acetonitrile (acetonitrile): H2O, v/v.
(§7) These values were accepted when found to be below 2% for apical to basolateral and 5% basolateral to apical flux across the MDR1-transfected LLC-PK1 or BCRP-transfected MDCKII cell monolayers. The plates were sealed and the contents of each well analyzed by LC-MS/MS. The compound concentrations were determined from the ratio of the peak areas of the compound to the internal standard (labetalol) in comparison to the dosing solution.
(§8) The LC-MS/MS system was comprised of an HTS-PAL autosampler (Leap Technologies, Carrboro, N.C.), an HP1200 HPLC (Agilent, Palo Alto, Calif.), and a MDS Sciex 4000 Q Trap system (Applied Biosystems, Foster City, Calif.). […] The total run time, including re-equilibration, for a single injection was 1.2 minutes. Mass spectrometric detection of the analytes was accomplished using the ion spray positive mode.
(§9) An efflux ratio is calculated from the mean apical to basolateral (A−B) Papp data and basolateral to apical (B−A) Papp data: Efflux ratio=Papp(B−A)/Papp(A−B)

[2] = system: LLC-PK1 or MDCKII cell monolayer; assay: MDR1 LLC-PK1 and BCRP MDCKII permeability assay: permeability coefficient (Papp); settings: permeability coefficient Papp; test article 1 μM; 2 hours, 37° C.
Description: (§10) Both LLC-PK1 and MDR1 transfected LLC-PK1 cells were cultured and plated according to manufacturer's recommendations with the exception that the passage media contained only 2% fetal bovine serum to extend passage time out to seven days.
as §4, §5, §6, §7, §8
(§11) where Cd, V, t and C0 are the detected concentration (μM), the volume on the dosing side (mL); the incubation time (s) and the initial dosing concentration (μM), respectively. The calculations for Papp were made for each replicate and then averaged.

[3] = target: full-length FLAG-tagged B-Raf(V600E) (Homo sapiens (Human), UniProt P15056, V600E); assay: BRAF V600E enzyme assay (TR-FRET competitive displacement of fluorescent tracer); assay type: binding; settings: averaged IC50; 60 min at ambient temperature; 11-point dosing, top dose 10 μM
Description: (§1) A competitive displacement assay was configured for B-Raf that monitors the amount of a fluorescently-tagged “tracer” bound to B-Raf via TR-FRET from an anti-tag Eu-labeled antibody also bound to B-Raf.
(§2) [formula] • where: • Xmax Average Uninhibited Controls • Xmin Average Background
(§3) A 4-parameter logistic model was the fit to the POC data for each compound.

P-gp (MDR1) [4] = target: T2, P-gp (MDR1) (Homo sapiens (Human), UniProt P08183); assay: MDR1 LLC-PK1 permeability assay: efflux ratio; settings: MDR1 transfected LLC-PK1 cells; Papp(B−A)/Papp(A−B); test article 1 μM; 2 hours
Description: as §10, §5, §6, §7, §8, §9

[5] = system: LLC-PK1 or MDCKII cell monolayer
Description: as §10, §4, §5, §6, §7, §8, §11

P-gp (MDR1) [6] = target: T2, P-gp (MDR1); settings: pig, LLC-PK1, 2 h, 1 µM
Description: as §10, §5, §6, §7, §8, §9

[7] = target: N-terminally GST-tagged B-Raf(V600K) (Homo sapiens, UniProt P15056, V600K); assay: BRAF V600K enzyme assay (TR-FRET competitive displacement of fluorescent tracer); assay type: binding; settings: averaged IC50; 60 min at ambient temperature; 11-point dosing, top dose 10 μM
Description: as §1, §2, §3

BCRP [8] = target: T1, BCRP; settings: dog, 2 h, 1 µM
Description: as §4, §5, §6, §7, §8, §9

[9] = PK (free brain-to-free plasma ratio) (mouse); assay type: in vivo; settings: unbound brain-to-unbound plasma concentration ratio; male CD-1 mice; oral gavage 10 mg/kg; sampling 2-24 hours
Description: PK (Free Brain-to-Free Plasma Ratio) (Mouse)
The ability of representative compounds to penetrate the BBB in mice was determined by evaluating the unbound brain-to-unbound plasma (also referred to as free brain-to-free plasma) concentration ratio in male CD-1 mice.
Brain samples were stored at −20±5° C. prior to analysis. Concentrations of test compound in mouse brain homogenate were determined by liquid chromatography tandem mass spectrometry (LC-MS/MS) following protein precipitation with acetonitrile. A 12-point calibration curve, ranging from 0.5 to 10,000 ng/mL, was prepared in duplicate. A solution of 400 μg/mL of test compound in dimethyl sulfoxide (DMSO) was serially diluted (3-fold) in 100% DMSO, and then 2.5 μL of each standard solution was added to 100 μL of naïve male CD-1 mice brain homogenate. To mimic the extraction in the standard curve, 2.5 μL of DMSO was added to all test samples. Both calibration and test brain homogenate samples were spiked with 10 μL of an IS (1 μg/mL of a structural analog). Brain homogenate was generated by adding 0.75 mL of 4:1 water:MeOH to each brain sample followed by homogenization for 1 minute with bead beater tubes a 6 m/s using an MP Fast Prep-24®. Proteins were precipitated from 100 μL of brain homogenate sample by the addition of 300 μL of acetonitrile. […] A 100 μL aliquot of each supernatant was transferred via a 550 μL Personal Pipettor (Apricot Designs, Monrovia, Calif.) to 96-well plates and diluted 1:1 with HPLC grade water. The resulting plates were sealed with aluminum for LC-MS/MS analysis.
Brain-to-plasma ratios were calculated using the concentration of compound measured in the brain divided by the concentration of compound measured in the plasma. Brain-to-plasma ratios were always generated from a single animal and time point. Free brain-to-free plasma ratios were calculated by multiplying the brain-to-plasma ratio by the in vitro brain homogenate free fraction divided by the in vitro plasma free fraction using the following equation: (B/P)*(Bfu/Pfu).

BCRP [10] = settings: reported in the literature; cited from earlier work
[11] = system: A375-luciferase intracranial tumor xenografts; assay: Intracranial A375-luciferase efficacy and survival mouse tumor model; assay type: in vivo, female nu/nu NCr mice; settings: for Survival (# Animals on day 90): n=10
Description: Female nu/nu NCr mice from Envigo (Indianapolis, Ind.) were obtained at 5-6 weeks of age and housed in groups of 5. Following a one week minimum acclimation period, mice received orthotopic (i.c.) intracranial injections of 3.0×10^3 A375-luciferase tumor cells suspended in a volume of 10 μL 0.9% sterile Dulbecco's phosphate buffered saline (DPBS) using the top-down approach (Laursen and Belknap, 1986). Seven days post cell implant (Day 1), animals were randomized and sorted into five groups (n=10/group).
Test compounds were given at a dose volume of 10 mL/kg, and vehicles were matched for each group to control for dosing stress, i.e. all groups received twice daily (BID) dose administration by oral gavage (PO) at the relevant dose volumes and schedule shown in Table 9. Tumor growth was monitored by measuring luciferase activity twice per week. Total flux/mouse can vary by an order of magnitude on day 1 of study start (start of dosing). The total flux was normalized per mouse by assigning the first measurement of flux on […] as 100%. Body weight loss as an indicator of tumor progression was determined daily during the dosing interval and then as needed (at least once weekly). Survival was evaluated through day 90 (30 days post-dosing cessation).

Chain of full-length FLAG-tagged B-Raf(V600E) (P15056 whole entry V600E): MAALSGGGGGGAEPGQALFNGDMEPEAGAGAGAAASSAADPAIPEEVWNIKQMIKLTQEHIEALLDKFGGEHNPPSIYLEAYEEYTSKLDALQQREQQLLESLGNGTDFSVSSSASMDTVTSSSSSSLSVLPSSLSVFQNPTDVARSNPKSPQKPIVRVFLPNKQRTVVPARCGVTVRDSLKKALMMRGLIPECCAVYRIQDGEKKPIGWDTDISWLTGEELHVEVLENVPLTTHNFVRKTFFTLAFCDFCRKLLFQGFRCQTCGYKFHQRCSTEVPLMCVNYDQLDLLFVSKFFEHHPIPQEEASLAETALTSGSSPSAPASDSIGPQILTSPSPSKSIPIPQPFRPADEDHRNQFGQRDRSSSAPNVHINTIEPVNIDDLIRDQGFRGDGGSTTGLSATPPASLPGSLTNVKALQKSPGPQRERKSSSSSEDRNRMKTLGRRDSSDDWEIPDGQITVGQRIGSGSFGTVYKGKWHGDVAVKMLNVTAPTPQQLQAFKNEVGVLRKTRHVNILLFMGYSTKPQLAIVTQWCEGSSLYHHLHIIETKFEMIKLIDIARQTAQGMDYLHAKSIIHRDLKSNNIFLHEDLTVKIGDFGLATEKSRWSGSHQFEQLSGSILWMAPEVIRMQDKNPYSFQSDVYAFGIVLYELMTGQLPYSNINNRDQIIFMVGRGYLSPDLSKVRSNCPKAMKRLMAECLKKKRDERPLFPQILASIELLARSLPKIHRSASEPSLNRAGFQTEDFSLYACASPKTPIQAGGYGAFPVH
T1 sequence (Q9UNQ0 whole entry, species assumed): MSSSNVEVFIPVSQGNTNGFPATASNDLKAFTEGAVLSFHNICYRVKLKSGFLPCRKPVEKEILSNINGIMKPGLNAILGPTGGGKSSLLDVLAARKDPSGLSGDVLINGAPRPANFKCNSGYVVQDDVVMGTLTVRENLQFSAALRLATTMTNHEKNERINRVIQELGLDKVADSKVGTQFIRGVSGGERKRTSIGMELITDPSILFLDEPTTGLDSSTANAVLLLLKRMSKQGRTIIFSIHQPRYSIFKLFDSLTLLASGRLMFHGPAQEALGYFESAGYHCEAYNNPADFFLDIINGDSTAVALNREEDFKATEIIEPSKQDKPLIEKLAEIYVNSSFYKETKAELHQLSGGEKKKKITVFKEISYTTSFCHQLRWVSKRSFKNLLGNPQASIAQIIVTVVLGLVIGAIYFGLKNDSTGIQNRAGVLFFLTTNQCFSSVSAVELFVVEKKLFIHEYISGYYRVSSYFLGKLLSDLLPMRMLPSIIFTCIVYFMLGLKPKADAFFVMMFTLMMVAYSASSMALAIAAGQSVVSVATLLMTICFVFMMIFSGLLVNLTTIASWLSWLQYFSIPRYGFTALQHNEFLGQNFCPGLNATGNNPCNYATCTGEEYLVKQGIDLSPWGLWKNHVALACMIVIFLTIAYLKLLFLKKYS
T2 sequence (P08183 whole entry, species assumed): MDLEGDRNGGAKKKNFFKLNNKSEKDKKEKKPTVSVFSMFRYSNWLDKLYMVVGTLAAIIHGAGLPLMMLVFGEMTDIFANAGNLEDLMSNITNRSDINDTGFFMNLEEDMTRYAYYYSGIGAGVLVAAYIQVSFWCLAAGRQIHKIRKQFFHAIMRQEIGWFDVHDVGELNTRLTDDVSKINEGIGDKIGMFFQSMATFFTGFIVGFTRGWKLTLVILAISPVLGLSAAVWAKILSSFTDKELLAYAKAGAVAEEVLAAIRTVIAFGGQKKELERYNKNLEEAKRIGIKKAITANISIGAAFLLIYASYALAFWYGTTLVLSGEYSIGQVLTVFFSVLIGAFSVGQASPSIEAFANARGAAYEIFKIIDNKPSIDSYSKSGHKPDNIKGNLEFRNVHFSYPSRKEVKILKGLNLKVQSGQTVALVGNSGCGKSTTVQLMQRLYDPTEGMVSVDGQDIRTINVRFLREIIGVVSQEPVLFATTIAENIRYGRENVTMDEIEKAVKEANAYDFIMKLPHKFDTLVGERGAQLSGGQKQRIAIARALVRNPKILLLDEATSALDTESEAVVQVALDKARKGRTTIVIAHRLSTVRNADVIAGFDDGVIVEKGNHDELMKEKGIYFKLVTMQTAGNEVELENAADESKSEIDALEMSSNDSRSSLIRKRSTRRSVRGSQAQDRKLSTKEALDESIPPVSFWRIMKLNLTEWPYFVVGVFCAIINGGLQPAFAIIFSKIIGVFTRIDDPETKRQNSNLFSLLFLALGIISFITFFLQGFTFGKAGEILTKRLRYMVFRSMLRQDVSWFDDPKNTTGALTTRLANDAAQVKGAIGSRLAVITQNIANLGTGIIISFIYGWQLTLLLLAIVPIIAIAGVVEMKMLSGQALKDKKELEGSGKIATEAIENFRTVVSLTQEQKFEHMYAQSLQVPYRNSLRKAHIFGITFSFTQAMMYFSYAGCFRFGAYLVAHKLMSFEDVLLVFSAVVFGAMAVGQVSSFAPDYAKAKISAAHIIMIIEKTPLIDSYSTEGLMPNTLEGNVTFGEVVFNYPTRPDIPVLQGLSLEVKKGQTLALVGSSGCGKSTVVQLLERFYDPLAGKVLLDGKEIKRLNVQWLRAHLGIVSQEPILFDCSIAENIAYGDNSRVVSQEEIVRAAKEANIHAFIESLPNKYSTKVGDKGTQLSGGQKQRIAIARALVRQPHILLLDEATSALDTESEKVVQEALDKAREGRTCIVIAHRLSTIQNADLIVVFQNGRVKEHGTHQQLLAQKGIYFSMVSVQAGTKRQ
Chain of N-terminally GST-tagged B-Raf(V600K) (P15056 2-766 V600K limits assumed): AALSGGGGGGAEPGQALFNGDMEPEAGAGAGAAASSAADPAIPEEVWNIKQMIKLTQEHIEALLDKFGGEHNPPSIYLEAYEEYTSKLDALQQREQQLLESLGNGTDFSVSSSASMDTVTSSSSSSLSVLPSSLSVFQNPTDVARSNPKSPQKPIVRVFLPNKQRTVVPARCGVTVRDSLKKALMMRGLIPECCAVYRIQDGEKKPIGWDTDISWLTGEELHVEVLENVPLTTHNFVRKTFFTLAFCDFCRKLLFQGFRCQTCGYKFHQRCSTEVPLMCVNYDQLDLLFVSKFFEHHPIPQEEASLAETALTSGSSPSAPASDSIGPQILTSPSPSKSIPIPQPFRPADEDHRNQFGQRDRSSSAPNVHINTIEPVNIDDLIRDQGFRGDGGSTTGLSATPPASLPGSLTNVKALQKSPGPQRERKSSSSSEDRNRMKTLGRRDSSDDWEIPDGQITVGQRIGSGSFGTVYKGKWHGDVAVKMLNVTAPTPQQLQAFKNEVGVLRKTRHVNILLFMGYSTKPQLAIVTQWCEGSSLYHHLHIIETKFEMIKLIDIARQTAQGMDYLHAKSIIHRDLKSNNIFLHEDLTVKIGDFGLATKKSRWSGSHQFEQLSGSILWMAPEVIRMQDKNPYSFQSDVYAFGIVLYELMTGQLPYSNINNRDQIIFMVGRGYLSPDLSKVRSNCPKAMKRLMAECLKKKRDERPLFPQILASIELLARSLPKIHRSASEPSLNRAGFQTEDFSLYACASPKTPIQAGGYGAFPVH

Compound | BCRP efflux ratio (BCRP [1]) | Permeability [2] | IC50 [3] | MDR1 efflux ratio (P-gp (MDR1) [4]) | further results
1-cyclopropyl-N-(4-((3,5-dimethyl-4-oxo-3,4-dihydroquinazolin-6-yl)amino)-3,5-difluoropyridin-2-yl)methanesulfonamide [Example 42] | 23.73 | 18.35 *10^−6 cm/s | 60.3 nM | 5.26 | –
N-(3-chloro-4-((3,5-dimethyl-4-oxo-3,4-dihydroquinazolin-6-yl)oxy)-5-fluoropyridin-2-yl)propane-1-sulfonamide [Example 63] | – | – | 2.8 nM | – | Permeability ([5]; 2 h, 1 µM): 26.09 *10^−6 cm/s; MDR1 efflux ratio (P-gp (MDR1) [6]): 1.3; IC50 [7]: 2.4 nM; BCRP efflux ratio (BCRP [8]): 7.7; B/P ratio (free) [9]: 0.34-0.4
CC(C)(C)c1nc(-c2cccc(NS(=O)(=O)c3c(F)cccc3F)c2F)c(-c2ccnc(N)n2)s1 [dabrafenib] | – | – | – | – | BCRP efflux ratio (BCRP [10]): 21.0
N-(2-chloro-3-((3,5-dimethyl-4-oxo-3,4-dihydroquinazolin-6-yl)amino)-4-fluorophenyl)ethanesulfonamide [Example 52] | 1.28 | 28.91 *10^−6 cm/s | 226 nM | 1.76 | –
N-(2-chloro-3-((3,5-dimethyl-4-oxo-3,4-dihydroquinazolin-6-yl)amino)-4-fluorophenyl)-2-methylpropane-1-sulfonamide [Example 51] | 1.28 | 27.16 *10^−6 cm/s | 63.4 nM | 1.64 | –
N-{2-chloro-3-[(3,5-dimethyl-4-oxo-3,4-dihydroquinazolin-6-yl)oxy]-4-fluorophenyl}propane-1-sulfonamide [Example 55] | – | – | 5.4 nM | – | MDR1 efflux ratio (P-gp (MDR1) [6]): 1.1; IC50 [7]: 3.1 nM; BCRP efflux ratio (BCRP [8]): 0.83; B/P ratio (free) [9]: 0.46-0.51
N-(3-((3,5-dimethyl-4-oxo-3,4-dihydroquinazolin-6-yl)amino)-2-fluoro-5-methylphenyl)propane-1-sulfonamide [Example 46] | – | – | 148 nM | – | Permeability ([5]; 2 h, 1 µM): 30.74 *10^−6 cm/s; MDR1 efflux ratio (P-gp (MDR1) [6]): 1.43; BCRP efflux ratio (BCRP [8]): 1.48
Cc1c(Nc2c(F)ccc(NS(=O)(=O)CCCF)c2Cl)ccc2ncn(C)c(=O)c12 [Example 82, N-(2-chloro-3-((3,5-dimethyl-4-oxo-3,4-dihydroquinazolin-6-yl)amino)-4-fluorophenyl)-3-fluoropropane-1-sulfonamide] | – | – | – | – | Survival (# Animals on day 90) ([11]; Example 82 10 mg/kg BID PO 60 days): 6/10; Survival (# Animals on day 90) ([11]; Example 82 30 mg/kg BID PO 60 days): 6/10; efficacy as a single agent in the model ([11]; both doses employed (10 and 30 mg/kg BID PO)): highly effective; effect on tumor growth (total bioluminescence, FIG. 15) ([11]; single agent, BID for 60 consecutive days PO): significant effect
CCCS(=O)(=O)Nc1cc(Cl)cc(Nc2ccc3ncn(C)c(=O)c3c2C)c1Cl [Example 48, N-(2,5-dichloro-3-((3,5-dimethyl-4-oxo-3,4-dihydroquinazoli-6-yl)amino)phenyl)propane-1-sulfonamide] | – | – | 3 nM | – | Permeability [5]: 25.83 *10^−6 cm/s
CCCS(=O)(=O)Nc1cccc(Nc2ccc3ncn(C)c(=O)c3c2C)c1C#N [Example 53, N-(2-cyano-3-((3,5-dimethyl-4-oxo-3,4-dihdyroquinazolin-6-yl)amino)phenyl)propane-1-sulfonamide] | – | – | 9.4 nM | – | Permeability [5]: 27.13 *10^−6 cm/s
N-(3-chloro-4-((3,5-dimethyl-4-oxo-3,4-dihydroquinazolin-6-yl)amino)-5-fluoropyridin-2-yl)-1-cyclopropylmethanesulfonamide [Example 47] | 7.93 | 25.7 *10^−6 cm/s | 41.7 nM | 1.84 | –
N-(4-((3,5-dimethyl-4-oxo-3,4-dihydroquinazolin-6-yl)amino)-3,5-difluoropyridin-2-yl)ethanesulfonamide [Example 43] | 26.02 | 8.75 *10^−6 cm/s | 260 nM | 5.24 | –
CCN(C)S(=O)(=O)Nc1ccc(F)c(Nc2ccc3ncn(C)c(=O)c3c2C)c1Cl [Example 54, N-(2-chloro-3-((3,5-dimethyl-4-oxo-3,4-dihydroquinazolin-6-yl)amino)-4-fluorophenyl)-N-ethyl-N-methylamino-1-sulfonamide] | – | – | 188 nM | – | Permeability [5]: 35.81 *10^−6 cm/s
CCCS(=O)(=O)Nc1ccc(F)c(C(=O)c2c[nH]c3ncc(-c4ccc(Cl)cc4)cc23)c1F [vemurafenib] | – | – | – | – | BCRP efflux ratio (BCRP [10]): 495
N-(3-chloro-4-((3,5-dimethyl-4-oxo-3,4-dihydroquinazolin-6-yl)amino)-5-fluoropyridin-2-yl)ethanesulfonamide [Example 45] | 11.29 | 16.56 *10^−6 cm/s | 137 nM | 2.47 | –
N-(2-chloro-3-((3,5-dimethyl-4-oxo-3,4-dihydroquinazolin-6-yl)amino)-4-fluorophenyl)-1-cyclopropylmethanesulfonamide [Example 50] | 1.13 | 21.88 *10^−6 cm/s | 66.1 nM | 1.54 | –
